Source: article PMC3653568 (Nature, 2012)

How the values were obtained:
Dopamine receptor D4 = molecular target: T1, Dopamine receptor D4 (Homo sapiens, UniProt P21917); format: cell-based; conditions: Fig. 3A agonist assay
T1 sequence (P21917 1-419): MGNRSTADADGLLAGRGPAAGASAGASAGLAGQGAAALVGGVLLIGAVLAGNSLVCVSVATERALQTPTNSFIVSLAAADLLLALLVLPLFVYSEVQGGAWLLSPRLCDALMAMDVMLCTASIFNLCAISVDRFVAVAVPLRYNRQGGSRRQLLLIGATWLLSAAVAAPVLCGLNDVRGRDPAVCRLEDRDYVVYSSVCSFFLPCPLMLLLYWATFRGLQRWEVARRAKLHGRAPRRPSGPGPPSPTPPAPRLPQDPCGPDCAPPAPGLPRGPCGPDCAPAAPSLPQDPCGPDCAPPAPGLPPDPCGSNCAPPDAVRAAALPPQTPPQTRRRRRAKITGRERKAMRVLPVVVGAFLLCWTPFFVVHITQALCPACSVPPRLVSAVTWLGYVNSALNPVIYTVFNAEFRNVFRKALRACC

Dopamine receptor D2 = Dopamine receptor D2 (Homo sapiens, UniProt P14416); format: cell-based; conditions: Fig. 3A agonist assay
Sequence of Dopamine receptor D2 (P14416 whole entry, species assumed): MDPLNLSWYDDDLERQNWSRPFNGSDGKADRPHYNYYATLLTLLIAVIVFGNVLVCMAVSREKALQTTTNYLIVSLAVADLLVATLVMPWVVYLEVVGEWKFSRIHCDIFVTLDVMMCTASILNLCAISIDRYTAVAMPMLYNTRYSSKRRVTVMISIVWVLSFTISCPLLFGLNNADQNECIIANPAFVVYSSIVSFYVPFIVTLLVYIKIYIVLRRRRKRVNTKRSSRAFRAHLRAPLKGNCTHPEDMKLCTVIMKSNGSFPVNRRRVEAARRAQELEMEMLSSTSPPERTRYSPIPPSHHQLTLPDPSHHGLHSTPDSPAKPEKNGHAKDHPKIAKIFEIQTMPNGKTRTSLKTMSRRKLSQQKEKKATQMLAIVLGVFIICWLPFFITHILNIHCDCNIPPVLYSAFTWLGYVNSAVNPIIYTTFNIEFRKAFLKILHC

D2 Receptor = D2 Receptor (Homo sapiens, UniProt P14416); assay: radioligand binding, [3H]N-methylspiperone; conditions: @ 10μM (Fig. 1c)
Sequence of D2 Receptor (P14416 whole entry): as the sequence (P14416 whole entry, species assumed) above

D4 Receptor = molecular target: T2, D4 Receptor (Homo sapiens, UniProt P21917); assay: radioligand binding, [3H]N-methylspiperone; conditions: bound stated
T2 sequence (P21917 1-419): T1 sequence (P21917 1-419)

| Compound | D4 functional mode (Dopamine receptor D4) | D2 functional mode (Dopamine receptor D2) | radioligand percentage inhibition D2 (D2 Receptor) [%] | Ki (D4 Receptor) [µM] |
| --- | --- | --- | --- | --- |
| COc1cc2c(cc1OC)C(=O)N(CCCCN1CCN(c3ccccc3OC)CC1)C2 [Compound 3] | agonist | inverse agonist | 96 | – |
| c1cncc(OC[C@@H]2CN(CCN3CCc4ccccc43)CCO2)c1 [Compound 21s] | – | – | – | < 1 |
| COc1cc2c(cc1OC)C(=O)C(CC1CCN(Cc3ccccc3)CC1)C2 (stereo not drawn) [Donepezil (Cpd 1), Donepezil, reference compound] | inverse agonist | – | 19 | – |
